Columns and labels:
ApoE2/E2 mice = assay: Plasma lipids in dyslipidemic ApoE2/E2 mice after per os treatment; type: in vivo, mouse; settings: 3 and 10 mpk per os, 14 days, vs control animals (FIG. 2-3)
Procedure: The dyslipidemic E2/E2 mouse's rates of total cholesterol, of triglycerides, and plasma free fatty acids are measured after 8 or 14 days of a per os treatment with the compounds according to the invention.
The hypolipidemic properties of the compounds according to the invention are evaluated in vivo by assaying plasma lipids and the analysis of the PPARs target genes expression in the liver after a treatment treating of the dyslipidemic E2/E2 mice with the compounds according to the invention.
The murine model used is the ApoE2/E2 mouse, a transgenic mouse having the human apolipoprotein E isoform E2 (Sullivan P M et al., 1998). In human, this apolipoprotein, a constituent of low and very low density lipoproteins (LDL-VLDL), is present in three isoforms E2, E3, and E4. The E2 form presents a mutation affecting the amino acid in position 158, which considerably weakens the affinity of this protein for LDL receptors. Accordingly, the VLDL clearance is nearly non-existent. An accumulation of low-density lipoproteins then occurs along with a mixed hyperlipidemia known as type III (elevated cholesterol and triglycerides).
The ApoE2/E2 transgenic mice were kept on a 12 hour/12 hour light/dark cycle at a constant temperature of 20±3° C. After a one week acclimatization period, the mice were weighed and divided into groups of 6 animals selected so as to render uniform the distribution of their body weights and plasma lipid rates, determined before the experiment. The tested compounds were suspended in carboxymethylcellulose (Sigma C4888) and administered by intra-gastric tube feeding once a day for 8 days (for compound 1) or 14 days (for compound 8) with the chosen doses. […] Taking of food and weight gain are recorded throughout the experiment. […]
Plasma lipid concentrations (total cholesterol and triglycerides) are measured by enzymatic doses (bioMérieux-Lyon-France) according to the provider's recommendations.
Plasma cholesterol and triglycerides rates are measured after 8 or 14 days of a per os treatment with the compounds according to the invention. […]

[1] = tested on: PPARs target genes (PDK4, ACO, UCP2) in hepatic and skeletal muscle tissue; assay: Expression of PPAR target genes in liver and skeletal muscle of db/db mice (quantitative RT-PCR); type: in vivo, mouse; settings: 50 mpk
Procedure: The effectiveness of the compounds according to the invention is also evaluated by measuring, in hepatic and muscular (skeletal) tissue, the expression of the genes involve in lipid and/or carbohydrate metabolism and in energy dissipation. Each level of gene expression is normalized in regarding the expression level of reference gene 36B4 in the hepatic tissue, or regarding the expression level of reference gene 18S in the gastrocnemius skeletal muscle. The induction factor, i.e. the ratio between the relative signal (induced by the compound according to the invention) and the average of relative values relating to the control group, is then calculated. The higher the induction factor is, the more the compound promotes gene expression. The final result is expressed as an average of the induction values obtained with each experimental group.
Female db/db mice were kept on a 12 hour/12 hour light/dark cycle at a constant temperature of 20±3° C. After a one week acclimatization period, the mice were weighed and divided into groups of 8 animals selected such as the distribution of body weight and of plasma lipid rate, determined before the experiment, was uniform. […] Taking of food and weight gain are recorded throughout the experiment. […]
1 μg of total RNA (quantified by spectrophotometry) was then reverse-transcripted into complementary DNA by means of a 1 hour reaction at 37° C. in a total volume of 20 μl containing a 1× buffer (Sigma), 1.5 mM of DTT, 0.18 mM of dNTPs (Promega), 200 ng of pdN6 (Amersham), 30U of RNase inhibitor (Sigma), and 1 μl of MMLV-RT (Sigma).
The PCR quantitative experiments were carried out using the MyiQ Single-Color Real-Time PCR Detection System (Biorad, Marnes-la-Coquette, France) and were performed using the iQ SYBR Green Supermix kit according to the provider's recommendations, in 96-well plates, with 5 μl of diluted reverse transcription solutions and at a hybridization temperature of 55° C. […]
The fluorescent quantity emitted is directly proportional to the amount of cDNA present at the beginning of the reaction and amplified during the PCR. […]

## CCCOc1ccc(C(=O)CCc2cc(C)c(OC(C)(C)C(=O)O)c(C)c2)cc1 [Compound 8, 2-[2,6-dimethyl-4-[3-[4-(propyloxy)phenyl]-3-oxo-propyl]phenoxyl]-2-methylpropanoic acid]
ApoE2/E2 mice
  plasma total cholesterol rates: very significantly decreased
[1]; 28 days (FIG. 3-4)
  hepatic expression of the genes coding for PDK4: significant increase
[1]; 28 days (FIG. 3-5)
  hepatic expression of the genes coding for ACO: significant increase
[1]; 28 days (FIG. 3-6)
  expression of the gene coding for UCP2 in the skeletal muscle: increase

— patent US8258182B2, “Substituted 1,3-diphenylpropane derivatives, preparations and uses thereof” (Genfit, priority 2006, dated 2012)
